Laboratory results: patent publication US20240182406A1, “COMPOUNDS AS SOLUBLE EPOXIDE HYDROLASE INHIBITORS” (UNIVERSITAT DE BARCELONA, priority 2021, published 2024)
Marks after values point to notes of the source that are not given here.

Assays:
SH-SY5Y cells = details: 100 μM, 24 h
Experimental: 50 ul of Cell titer Glo reagent was added to each well and incubated for 10 min.

GFAP = assay: Western blot of hippocampus, neuroinflammation marker GFAP (5×FAD mice); assay type: in vivo, mouse; details: 5×FAD male mice, 5 mg/kg, 4 weeks, Arbitrary Units, control as 100%
Description: 5×FAD (tg6799) is an early-onset mouse transgenic model which overexpress mutant human APP(695) with the Swedish (K670N, M671L), Florida (I716V) and London (V717I) Familial Alzheimer's Disease (FAD) mutations along with human PS1 harbouring two FAD mutations (M146L and L286V). The Tg6799 line used is the original hybrid B6SJL background, and this hybrid B6SJL strain is used as a control of healthy animals. The mouse Thy1 promoter regulates both transgenes to drive overexpression in the brain. 5×FAD mice recapitulate major features of AD amyloid pathology and is a useful model of intraneuronal Abeta-42 induced neurodegeneration with amyloid increase brain content and amyloid plaque formation and tau hyperphosphorylation (J Neurosci. 2006, 26(40), 10129-10140).
(§1) The test compound was dissolved in 1.8% hydroxypropyl-beta-cyclodextrin and concentration in water was calculated according to the weekly animal consumption to reach the precise daily dose. A freshly made weekly replaces the drinking solution. The amount of water that the animals drink was monitored weekly, by the cage, and drug concentration was adjusted every week to reach the precise dose. […]
Afterwards, membranes were washed and incubated with secondary antibodies for 1 h at room temperature. […] Immunodetection of GADPH routinely monitored protein loading. […]

5×FAD mice = assay: Novel Object Recognition Test (NORT) in 5×FAD mouse model of Alzheimer disease; assay type: in vivo; details: 5×FAD model, 5 mg/kg, treated vs control groups
Description: 5×FAD (tg6799) is an early-onset mouse transgenic model which overexpress mutant human APP(695) with the Swedish (K670N, M671L), Florida (I716V) and London (V717I) Familial Alzheimer's Disease (FAD) mutations along with human PS1 harbouring two FAD mutations (M146L and L286V). The Tg6799 line used is the original hybrid B6SJL background, and this hybrid B6SJL strain is used as a control of healthy animals. The mouse Thy1 promoter regulates both transgenes to drive overexpression in the brain. […]
as §1, with “A freshly made weekly replaces the drinking solution.” left out
Mice were placed in a 90°, two-arm, 25-cm-long, 20-cm-high, 5-cm-wide black maze. […] During this second trial, objects A and B were placed in the maze and the behaviour of the mice was recorded with a camera. The time that the mice explored the New object (TN) and Time that the mice explored the Old object […] (TO) were measured. […]

CD1 mice = assay: Seizure assay (pentylenetetrazole, PTZ test); assay type: in vivo, mouse
Experimental: Test compounds were dissolved in 20% hydroxypropyl-beta-cyclodextrin and concentration was calculated according to the animal weigh to reach the precise dose. Animals were housed in standard care facilities with a 12 hours light-dark cycle with free access to water and food.
To investigate the ability of compounds to cross the blood-brain barrier (BBB), a standard acute test involving the administration of pro-convulsant pentylenetetrazole (PTZ) was employed [Inceoglu et al, PLoS ONE, 2013, 8(12), e80922; WO 2015/148954 A1]. In the test, PTZ was administered at 85 mg/Kg by subcutaneous route, time to onset of first clonic seizure, average of clonic seizures, tonic seizure latency and lethality were monitored for 30 min. Vehicles or compounds were administered by gavage at 5 mg/kg 1 h prior to pro-convulsant.

[1] = 5 mg/kg by gavage 1 h prior to PTZ 85 mg/Kg s.c., monitored 30 min

O=C(NC12CC3CC(Cl)(CC(C1)c1ccccc13)C2)N[C@H]1CC[C@H](Oc2ccc(C(=O)O)cc2)CC1 [Example 2, 4-[((1r,4r)-4-(3-(9-chloro-5,6,8,9,10,11-hexahydro-7H-5,9:7,11-dimethanobenzo[9]annulen-7-yl)ureido)cyclohexyl)oxy]benzoic acid]
neuronal cell toxicity (viability) (SH-SY5Y cells): did not show any neuronal cell toxicity
GFAP protein levels (GFAP; listed as Cpd. Ex. 2): 125.85 ± 9.21*^
GFAP protein levels (GFAP; listed as compound of example 2): significant diminution in the protein levels
memory deficits by NORT (5×FAD mice): reduced memory deficits
Average clonic seizure (CD1 mice; [1]): 1.25
Mean time to clonic seizure latency (CD1 mice; [1]): 1006.5 s
Protected from tonic/total (Mortality) (CD1 mice; [1]): 6/6****
Mean time to tonic seizure (CD1 mice; 5 mg/kg by gavage 1 h prior to PTZ 85 mg/Kg s.c., animals without tonic seizure within 30 min excluded): 0.00 s
Mean time to tonic seizure in seconds (CD1 mice; 5 mg/kg by gavage 1 h prior to PTZ 85 mg/Kg s.c., animals without tonic seizure within 30 min excluded, listed as compound of Example 2): delay onset of tonic seizures
protection from convulsions and associated lethality (CD1 mice; PTZ test, 5 mg/kg by gavage): protect mice from convulsions and associated lethality
